From paper PMC10707942, “Polyaromatic Bis(indolyl)methane Derivatives with Antiproliferative and Antiparasitic Activity” (Molecules, 2023)

Columns and labels:
T. brucei = assay: Trypanocidal activity, alamarBlue assay; assay type: cell-based, Trypanosoma brucei; conditions: for IC50: Trypanosoma brucei, 72 h, alamarBlue, error reported as σ; for Selectivity Index (SI) T. brucei: SI = IC50 MRC-5/IC50 T. brucei
Experimental: The trypanocidal activity of the compounds was assessed using the alamarBlue® assay (ThermoFisher Scientific, Waltham, MA, USA). […] Finally, cells were lysed with 50 μL per well of SDS 3%. The plate was incubated at 37 °C for an extra hour; then, the fluorescence intensity was measured with an Infinite F200 plate reader (Tecan Austria, GmbH, Grödig, Austria), exciting at 550 nm and recording the emission at 590 nm. The results are expressed as the concentration of the compound that reduces cell growth by 50% versus untreated control cells (IC50). Data are presented as the average of at least three independent measurements all conducted in triplicate.

L. major = assay: Leishmanicidal activity, MTT-based assay; assay type: cell-based, Leishmania major; conditions: for IC50: Leishmania major, promastigotes, 72 h, MTT, error reported as σ; for Selectivity Index (SI) L. major: SI = IC50 MRC-5/IC50 L. major
Experimental: (§1) The biological activity of the bis(indolyl)methane derivatives 2a–c were evaluated on in vitro models of parasites (T. brucei and L. major), human cancer cells (HeLa and HT-29) and human healthy cells (MRC-5). The toxicity of the BIM derivatives was determined through alamarBlue assay (for T. brucei and MRC-5) or MTT assay (for L. major), and the results are expressed as the concentration of the compound that reduces cell viability by 50% calculated through dose-response curves to give half maximal inhibitory concentration (IC50) (see Figures S7–S11).
L. major (MHOM/IL/80/Friedlin) promastigotes were cultured at 28 °C, 5% CO2 in modified RPMI-1640 medium (Invitrogen, Carlsbad, CA, USA) supplemented with 10% hiFBS [45]. Parasites were maintained in culture in their experimental growth phase (below 2 million parasites per mL for T. brucei and 10 million parasites per mL for L. major).
The leishmanicidal activity of the compounds was determined using MTT-based assay (Sigma-Aldrich, St. Louis, MO, USA). The stock solutions of the compounds were prepared in DMSO, and the final DMSO percentage in each well was adjusted to be less than 1%. A total of 4 × 10^6 parasites per mL were incubated at 28 °C in 96-well plates (50 μL/well) alone or in the presence of an increasing concentration of compounds DMSO for 72 h. A total of 10 μL of MTT (5 mg/mL) was added to each well, and parasites were incubated for 4 h at 28 °C. Finally, cells were lysed with 50 μL/well of 20% SDS. The plate was incubated at 37 °C for an extra hour; then, the absorbance was measured with the Infinite F200 plate reader (TECAN Austria, GmbH, Grödig, Austria) at a wavelength of 540 nm. The IC50 was calculated as described above. Data are presented as the average of at least three independent measurements all conducted in triplicate.

[1] = test system: MRC-5 cell line (human lung fibroblast); assay: Cytotoxicity in healthy cell line, alamarBlue assay; assay type: cell-based; conditions: MRC5, 72 h, error reported as σ
Experimental: as §1
MRC-5 cell line (human lung fibroblast) was grown in monolayer at 37 °C, 5% CO2 in DMEM medium (1 g/L glucose) supplemented with 10% hiFBS, 100 U/mL penicillin, […] streptomycin and 2 mM L-glutamine.
(§2) Cytotoxicity was measured in MRC-5, HeLa and HT-29 cell lines using alamarBlue® assay (ThermoFisher Scientific). The stock solutions of the compounds were prepared in DMSO, and the final DMSO percentage in each well was adjusted to be less than 1%. A total of 5 × 10^3 cells per mL (MRC-5, HeLa or HT-29 cells) were seeded in 96-well plates (100 μL/well) with 24 h of incubation time before compound addition at 37 °C, 5% CO2. Then, the compounds were added at increasing concentrations (from 0 to 100 μM), and the plates were incubated for 72 h. A total of 20 μL of resazurin solution (110 ng/mL) was added to each well, and cells were incubated for 4 h. Then, cells were lysed with 50 μL/well of 3% SDS. The plate was incubated at 37 °C for an extra hour; then, the fluorescence intensity was measured with the Infinite F200 plate reader (TECAN Austria, GmbH), exciting at 550 nm and recording the emission at 590 nm. The results are expressed as the concentration of compound that reduces cell growth by 50% versus untreated control cells (IC50). Data are presented as the average of at least three independent measurements all conducted in triplicate.

[2] = test system: HT-29 (human colorectal adenocarcinoma); assay: Cytotoxicity in cancer cell line, alamarBlue assay; assay type: cell-based; conditions: for IC50: Homo sapiens, HT-29, 72 h, alamarBlue, error reported as σ; for Selectivity Index (SI) HT-29: SI = IC50 MRC-5/IC50 HT-29
Experimental: (§3) HeLa (human cervical carcinoma) and HT-29 (human colorectal adenocarcinoma) cell lines were maintained at 37 °C, 5% CO2 in high glucose DMEM (4.5 g/L glucose) supplemented with 10% hiFBS, 100 U/mL penicillin, […] streptomycin, 2 mM L-glutamine and non-essential amino acids (1X). Cells were plated and passaged according to ATCC recommendations and were used for the experiments while in the exponential growth phase.
as §2

[3] = test system: HeLa (human cervical carcinoma); assay: Cytotoxicity in cancer cell line, alamarBlue assay; assay type: cell-based; conditions: for IC50: Homo sapiens, HeLa, 72 h, alamarBlue, error reported as σ; for Selectivity Index (SI) HeLa: SI = IC50 MRC-5/IC50 HeLa
Experimental: as §3, §2

HT-29 cell line = test system: HT-29 cell line; design: method as in PMID 30715794; conditions: cited from earlier work
Leishmania donovani = test system: Leishmania donovani; design: method as in PMID 18703668, PMID 17922678; conditions: cited from earlier work

Structure (SMILES) | IC50 (T. brucei) [µM] | IC50 (L. major) [µM] | IC50 [1] [µM] | IC50 [2] [µM] | Selectivity Index (SI) HT-29 [2] | IC50 [3] [µM] | Selectivity Index (SI) HeLa [3] | Selectivity Index (SI) T. brucei (T. brucei) | Selectivity Index (SI) L. major (L. major) | IC50 (HT-29 cell line) [µM] | IC50 (Leishmania donovani) [µM]
Oc1cccc2ccc(C(c3c[nH]c4ccccc34)c3c[nH]c4ccccc34)nc12 [Compound 2c] | 14.66 ± 0.05 | 20.7 ± 1.71 | 3.25 ± 0.29 | 71.4 ± 3.99 | 0.05 | 28.3 ± 5.01 | 0.11 | – | – | – | –
CN(C)c1ccc(C(c2c[nH]c3ccccc23)c2c[nH]c3ccccc23)c2ccccc12 [Compound 2b] | 16 ± 4.44 | > 100 | 94.9 ± 7.27 | 25.4 ± 5.23 | 3.73 | 89.56 ± 0.15 | 1.06 | 5.93 | <0.95 | – | –
c1ccc(N(c2ccccc2)c2ccc(C(c3c[nH]c4ccccc34)c3c[nH]c4ccccc34)cc2)cc1 [Compound 2a] | 3.21 ± 0.04 | 3.3 ± 0.25 | 33.7 ± 3.19 | 3.93 ± 0.49 | 8.57 | 37.5 ± 1.86 | 0.90 | 10.50 | 10.21 | – | –
c1ccc2c(Cc3c[nH]c4ccccc34)c[nH]c2c1 [Arundine, 3,3-diindolylmethane] | – | – | – | – | – | – | – | – | – | > 100 | 1.2
